These results are taken from patent US20260265238A1, “COMPOUNDS AND PHARMACEUTICAL COMPOSITIONS THAT DEGRADE SWI/SNF-RELATED MATRIX-ASSOCIATED ACTIN-DEPENDENT REGULATOR OF CHROMATIN SUBFAMILY A” (Plexium, Inc., priority 2023, published 2026).

Molecules are shown by their SMILES.

The target in test [1] is T1, SMARCA2-HiBiT HeLa cells (protein which is expressed from the SMARCA2 gene) (Homo sapiens, UniProt P51531).
T1 construct: protein which is expressed from the SMARCA2 and SMARCA4 genes; host or cells: HeLa (SMARCA2-HiBiT engineered line)
The experiment in a line: SMARCA2 degradation assay (HiBiT-fusion HeLa cell line, 24 h, luminescence). It is filed as cell-based. As to the method: (§1) SMARCA2 and SMARCA4 Degradation Assay
(§2) Degradation of protein which is expressed from the SMARCA2 and SMARCA4 genes was monitored using engineered HiBiT-fusion HeLa cell lines from Promega. In brief, 384-well white opaque plates (Greiner) were seeded with SMARCA2-HiBiT or SMARCA4-HiBiT HeLa cells at 8,000 cells/well and incubated overnight at 37° C. to allow cell attachment. After overnight incubation, test compounds were added in a 10-point dilution series (typically 10 μM to 300 pM) using a TECAN D300e Digital Dispenser, and plates were subsequently incubated for 24 hours at 37° C. 24-hours post-treatment, protein levels were quantified with the addition of HiBiT lytic buffer, LgBiT protein, and HiBiT substrate, according to manufacturer's specifications. Plates were incubated on an orbital plate shaker for 10 minutes at room temperature. Resulting luminescent values were read out using a ClarioStar plate reader and used to construct dose-response curves and calculation of degradation DC50s (GraphPad Prism).
(§3) Activity of the tested compounds is provided in Table 4 below as follows: A=DC50<0.050 μM; B=0.05 μM<DC50<0.50 μM; C=<0.5 μM<DC50<5.0 μM; D=DC50>5.0 μM. For SMARCA2 and SMARCA4 degradation activity @1 μM, +++=>70%; ++=30-70%; +=<30%.
For orientation: HiBiT is a short tag that completes a luciferase, so light tracks the accessible tagged protein.

Test [2] has as its target T2, SMARCA4-HiBiT HeLa cells (protein which is expressed from the SMARCA4 gene) (Homo sapiens, UniProt P51532).
T2 construct: protein which is expressed from the SMARCA2 and SMARCA4 genes; host or cells: HeLa (SMARCA4-HiBiT engineered line)
The experiment in a line: SMARCA4 degradation assay (HiBiT-fusion HeLa cell line, 24 h, luminescence). It is filed as cell-based. As to the method: as §1, §2, §3

T2 sequence (P51532 whole entry): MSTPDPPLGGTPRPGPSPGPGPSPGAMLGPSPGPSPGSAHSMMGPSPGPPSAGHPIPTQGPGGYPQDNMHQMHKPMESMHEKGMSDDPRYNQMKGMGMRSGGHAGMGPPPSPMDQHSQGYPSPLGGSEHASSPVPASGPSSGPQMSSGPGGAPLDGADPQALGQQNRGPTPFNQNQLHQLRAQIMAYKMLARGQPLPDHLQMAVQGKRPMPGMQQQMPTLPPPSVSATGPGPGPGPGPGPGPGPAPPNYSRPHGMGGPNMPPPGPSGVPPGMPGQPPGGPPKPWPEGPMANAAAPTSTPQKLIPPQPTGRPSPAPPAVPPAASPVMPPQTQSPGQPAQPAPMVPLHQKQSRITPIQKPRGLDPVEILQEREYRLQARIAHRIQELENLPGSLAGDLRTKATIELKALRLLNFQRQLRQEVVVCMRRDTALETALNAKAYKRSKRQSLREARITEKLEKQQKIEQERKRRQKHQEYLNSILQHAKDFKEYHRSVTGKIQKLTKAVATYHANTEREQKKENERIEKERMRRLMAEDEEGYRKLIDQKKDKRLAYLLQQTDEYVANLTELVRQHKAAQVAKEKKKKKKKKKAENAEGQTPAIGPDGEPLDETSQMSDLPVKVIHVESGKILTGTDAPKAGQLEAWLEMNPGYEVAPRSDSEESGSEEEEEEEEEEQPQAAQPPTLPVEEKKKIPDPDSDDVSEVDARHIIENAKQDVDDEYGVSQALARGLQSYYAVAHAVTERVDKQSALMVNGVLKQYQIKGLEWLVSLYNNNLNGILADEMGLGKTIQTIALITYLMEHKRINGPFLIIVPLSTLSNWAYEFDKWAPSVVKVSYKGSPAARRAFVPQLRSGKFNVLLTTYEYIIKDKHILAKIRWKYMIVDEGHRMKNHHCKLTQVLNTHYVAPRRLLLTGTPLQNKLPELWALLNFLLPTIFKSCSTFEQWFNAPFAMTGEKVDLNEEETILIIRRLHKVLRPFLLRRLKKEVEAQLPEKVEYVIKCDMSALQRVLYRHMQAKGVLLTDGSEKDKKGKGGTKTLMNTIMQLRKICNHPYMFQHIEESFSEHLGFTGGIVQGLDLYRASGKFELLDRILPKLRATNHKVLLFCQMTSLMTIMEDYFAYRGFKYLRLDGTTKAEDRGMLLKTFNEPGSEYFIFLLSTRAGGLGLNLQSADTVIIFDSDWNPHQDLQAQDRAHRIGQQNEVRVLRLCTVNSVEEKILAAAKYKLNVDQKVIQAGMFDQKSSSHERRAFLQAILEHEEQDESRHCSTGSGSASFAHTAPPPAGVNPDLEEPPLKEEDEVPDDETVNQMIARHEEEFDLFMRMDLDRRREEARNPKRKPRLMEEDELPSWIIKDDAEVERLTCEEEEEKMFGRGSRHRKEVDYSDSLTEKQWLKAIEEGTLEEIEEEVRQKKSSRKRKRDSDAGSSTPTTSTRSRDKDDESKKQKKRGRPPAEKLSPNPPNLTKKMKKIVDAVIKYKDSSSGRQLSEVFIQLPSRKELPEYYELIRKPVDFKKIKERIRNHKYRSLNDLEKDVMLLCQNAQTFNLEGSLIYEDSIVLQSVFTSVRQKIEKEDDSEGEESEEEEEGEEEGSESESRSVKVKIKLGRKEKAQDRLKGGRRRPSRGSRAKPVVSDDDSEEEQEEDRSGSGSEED
T1 sequence (P51531 whole entry): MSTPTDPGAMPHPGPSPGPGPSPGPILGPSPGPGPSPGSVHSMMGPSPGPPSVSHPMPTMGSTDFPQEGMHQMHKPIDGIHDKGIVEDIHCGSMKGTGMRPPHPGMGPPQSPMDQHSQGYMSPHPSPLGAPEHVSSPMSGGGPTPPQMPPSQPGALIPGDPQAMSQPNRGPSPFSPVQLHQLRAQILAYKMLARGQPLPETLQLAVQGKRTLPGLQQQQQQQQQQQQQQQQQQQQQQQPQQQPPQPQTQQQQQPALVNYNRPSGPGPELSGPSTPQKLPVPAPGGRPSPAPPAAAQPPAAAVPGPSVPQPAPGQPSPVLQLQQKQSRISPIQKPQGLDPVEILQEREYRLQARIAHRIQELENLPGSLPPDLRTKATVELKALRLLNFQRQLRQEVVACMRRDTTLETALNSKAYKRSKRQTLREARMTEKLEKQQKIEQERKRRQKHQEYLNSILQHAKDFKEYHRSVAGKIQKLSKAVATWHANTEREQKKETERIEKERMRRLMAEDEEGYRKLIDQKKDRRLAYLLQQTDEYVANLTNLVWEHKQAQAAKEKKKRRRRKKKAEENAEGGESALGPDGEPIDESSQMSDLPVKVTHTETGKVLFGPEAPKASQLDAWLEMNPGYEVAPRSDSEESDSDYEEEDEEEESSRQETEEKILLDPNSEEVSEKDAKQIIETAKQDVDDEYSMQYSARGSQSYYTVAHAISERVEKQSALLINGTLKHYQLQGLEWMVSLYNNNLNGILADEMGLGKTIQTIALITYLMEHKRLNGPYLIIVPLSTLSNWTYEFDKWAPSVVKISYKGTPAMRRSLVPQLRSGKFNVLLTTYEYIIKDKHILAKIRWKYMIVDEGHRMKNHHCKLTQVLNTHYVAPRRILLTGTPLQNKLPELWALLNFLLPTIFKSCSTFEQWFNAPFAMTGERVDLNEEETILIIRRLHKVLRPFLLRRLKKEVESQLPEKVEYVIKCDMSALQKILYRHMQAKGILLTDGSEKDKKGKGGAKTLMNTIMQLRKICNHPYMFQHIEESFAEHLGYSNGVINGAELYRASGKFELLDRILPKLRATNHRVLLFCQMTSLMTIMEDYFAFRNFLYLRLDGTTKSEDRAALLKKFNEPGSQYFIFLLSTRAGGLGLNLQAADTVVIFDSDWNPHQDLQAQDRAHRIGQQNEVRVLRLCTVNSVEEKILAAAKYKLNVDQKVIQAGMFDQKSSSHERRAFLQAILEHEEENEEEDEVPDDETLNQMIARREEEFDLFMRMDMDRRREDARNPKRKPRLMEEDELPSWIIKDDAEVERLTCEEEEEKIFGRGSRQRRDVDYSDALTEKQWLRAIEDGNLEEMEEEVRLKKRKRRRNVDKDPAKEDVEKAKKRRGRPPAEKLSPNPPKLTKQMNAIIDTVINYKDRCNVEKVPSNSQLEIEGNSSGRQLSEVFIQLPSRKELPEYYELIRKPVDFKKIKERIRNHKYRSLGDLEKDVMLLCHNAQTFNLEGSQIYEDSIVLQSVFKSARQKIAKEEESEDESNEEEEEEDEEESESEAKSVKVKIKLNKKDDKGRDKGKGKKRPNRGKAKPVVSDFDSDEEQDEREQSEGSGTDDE

As to `Nc1nnc(-c2ccccc2O)cc1N1CCCC2(CCN(c3ccnc(C#CCNC(=O)c4cc5ncccn5n4)n3)CC2)C1` [Compound P-33, N-(3-(4-(2-(3-amino-6-(2-hydroxyphenyl)pyridazin-4-yl)-2,9-diazaspiro[5.5]undecan-9-yl)pyrimidin-2-yl)prop-2-yn-1-yl)pyrazolo[1,5-a]pyrimidine-2-carboxamide], in test [1], the DC50 (as a rule, the midpoint of the concentration-degradation curve) lay within 50 to 500 nM and the “SMARCA2 % Degradation @ 1 μM” value was “++ (++=30-70%)”. Besides, in test [2], the DC50 is 50 to 500 nM and the inhibition – broadly, the percentage by which the read-out fell short of the control – at 1 µM was in the range of 30 to 70%.
Consider `Nc1nnc(-c2ccccc2O)cc1N1CCC2(CCN(c3ccnc(C#CCNC(=O)c4cc5ncccn5n4)n3)CC2)C1` [Compound P-34, N-(3-(4-(2-(3-amino-6-(2-hydroxyphenyl)pyridazin-4-yl)-2,8-diazaspiro[4.5]decan-8-yl)pyrimidin-2-yl)prop-2-yn-1-yl)pyrazolo[1,5-a]pyrimidine-2-carboxamide], for which, in test [1], the DC50 was 50 to 500 nM and the “SMARCA2 % Degradation @ 1 μM” value is listed as “++ (++=30-70%)”. Besides, in test [2], the half-maximal degradation concentration (DC50) is 50 to 500 nM and the inhibition at 1 µM is 30 to 70%.
For `Nc1nnc(-c2ccccc2O)cc1N1CCC2(CCCN(c3ccnc(C#CCNC(=O)c4cc5ncccn5n4)n3)C2)CC1` [Compound P-35, N-(3-(4-(9-(3-amino-6-(2-hydroxyphenyl)pyridazin-4-yl)-2,9-diazaspiro[5.5]undecan-2-yl)pyrimidin-2-yl)prop-2-yn-1-yl)pyrazolo[1,5-a]pyrimidine-2-carboxamide], in test [1], the DC50 was in the range of 50 to 500 nM and the “SMARCA2 % Degradation @ 1 μM” value is “++ (++=30-70%)”. Besides, in test [2], the 50% degradation concentration (DC50) was 50 to 500 nM and the inhibition at 1 µM is > 70%.
For the molecule `Nc1nnc(-c2ccccc2O)cc1N1CC2CCN(c3ccnc(C#CCNC(=O)c4cc5ncccn5n4)n3)C2C1` (stereo not shown) [Compound P-36, N-(3-(4-(5-(3-amino-6-(2-hydroxyphenyl)pyridazin-4-yl)hexahydropyrrolo[3,4-b]pyrrol-1(2H)-yl)pyrimidin-2-yl)prop-2-yn-1-yl)pyrazolo[1,5-a]pyrimidine-2-carboxamide], in test [1], the DC50 was in the range of 50 to 500 nM and the “SMARCA2 % Degradation @ 1 μM” value is listed as “+++ (+++=>70%)”. Besides, in test [2], the DC50 lay in the range of 50 to 500 nM and the inhibition at 1 µM was > 70%.
Regarding `Nc1nnc(-c2ccccc2O)cc1N1CCC2CCN(c3ccnc(C#CCNC(=O)c4cc5ncccn5n4)n3)C2C1` (stereo not shown) [Compound P-37, N-(3-(4-(6-(3-amino-6-(2-hydroxyphenyl)pyridazin-4-yl)octahydro-1H-pyrrolo[2,3-c]pyridin-1-yl)pyrimidin-2-y1)prop-2-yn-1-yl)pyrazolo[1,5-a]pyrimidine-2-carboxamide], in test [1], the 50% degradation concentration (DC50) lay within 50 to 500 nM and the “SMARCA2 % Degradation @ 1 μM” value was “++ (++=30-70%)”. In test [2], the DC50 was in the range of 50 to 500 nM and the inhibition at 1 µM lay in the range of 30 to 70%.
As for `Nc1nnc(-c2ccccc2O)cc1N1CCC2C1CCCN2c1ccnc(C#CCNC(=O)c2cc3ncccn3n2)n1` (stereo not shown) [Compound P-38, N-(3-(4-(1-(3-amino-6-(2-hydroxyphenyl)pyridazin-4-yl)octahydro-4H-pyrrolo[3,2-b]pyridin-4-yl)pyrimidin-2-yl)prop-2-yn-1-yl)pyrazolo[1,5-a]pyrimidine-2-carboxamide], in test [1], the 50% degradation concentration (DC50) fell in the range of 500 to 5000 nM and the “SMARCA2 % Degradation @ 1 μM” value is “+ (+=<30%)”. For the same molecule, in test [2], the DC50 was in the range of 500 to 5000 nM and the inhibition at 1 µM was < 30%.
`CC1CN(c2ccnc(C#CCN)n2)CCN(c2cc(-c3ccccc3O)nnc2N)C1` (stereo not shown) [Compound P-39, 2-(6-amino-5-(4-(2-(3-aminoprop-1-yn-1-yl)pyrimidin-4-yl)-6-methyl-1,4-diazepan-1-yl)pyridazin-3-yl)phenol]: in test [1], the half-maximal degradation concentration (DC50) is 500 to 5000 nM and the “SMARCA2 % Degradation @ 1 μM” value is reported as “+ (+=<30%)”. In test [2], the 50% degradation concentration (DC50) was in the range of 500 to 5000 nM and the inhibition at 1 µM is < 30%.
Regarding `CC1CN(c2ccnc(C#CCN)n2)CCCN1c1cc(-c2ccccc2O)nnc1N` (stereo not shown) [Compound P-40, 2-(6-amino-5-(4-(2-(3-aminoprop-1-yn-1-yl)pyrimidin-4-yl)-2-methyl-1,4-diazepan-1-yl)pyridazin-3-yl)phenol], in test [1], the 50% degradation concentration (DC50) lay in the range of 500 to 5000 nM and the “SMARCA2 % Degradation @ 1 μM” value is “+ (+=<30%)”. Further, in test [2], the DC50 lay in the range of 500 to 5000 nM and the inhibition at 1 µM was < 30%.
In the case of `Nc1nnc(-c2ccccc2O)cc1N1CC2CN(c3ccnc(C#CCNC(=O)c4cc5ncccn5n4)n3)CC2C1` (stereo not shown) [Compound P-41, N-(3-(4-(5-(3-amino-6-(2-hydroxyphenyl)pyridazin-4-yl)hexahydropyrrolo[3,4-c]pyrrol-2(1H)-yl)pyrimidin-2-yl)prop-2-yn-1-yl)pyrazolo[1,5-a]pyrimidine-2-carboxamide], in test [1], the half-maximal degradation concentration (DC50) lay within 50 to 500 nM and the “SMARCA2 % Degradation @ 1 μM” value was “++ (++=30-70%)”. In test [2], this molecule registered a DC50 of 50 to 500 nM and an inhibition at 1 µM of 30 to 70%.
`Nc1nnc(-c2ccccc2O)cc1N1CCC2(CCN(c3ccnc(C#CCNC(=O)c4cc5ncccn5n4)n3)CC2)CC1` [Compound P-42, N-(3-(4-(9-(3-amino-6-(2-hydroxyphenyl)pyridazin-4-yl)-3,9-diazaspiro[5.5]undecan-3-yl)pyrimidin-2-yl)prop-2-yn-1-yl)pyrazolo[1,5-a]pyrimidine-2-carboxamide]: in test [1], the 50% degradation concentration (DC50) fell in the range of 50 to 500 nM and the “SMARCA2 % Degradation @ 1 μM” value is “++ (++=30-70%)”. Besides, in test [2], the 50% degradation concentration (DC50) is 50 to 500 nM and the inhibition at 1 µM lay within 30 to 70%.
On to `Nc1nnc(-c2ccccc2O)cc1N1CC2CN(c3ccnc(C#CCNC(=O)c4cc5ncccn5n4)n3)C2C1` (stereo not shown) [Compound P-43, N-(3-(4-(3-(3-amino-6-(2-hydroxyphenyl)pyridazin-4-yl)-3,6-diazabicyclo[3.2.0]heptan-6-yl)pyrimidin-2-yl)prop-2-yn-1-yl)pyrazolo[1,5-a]pyrimidine-2-carboxamide], for which, in test [1], the half-maximal degradation concentration (DC50) lay within 500 to 5000 nM and the “SMARCA2 % Degradation @ 1 μM” value was “++ (++=30-70%)”. In test [2], this molecule displayed a 50% degradation concentration (DC50) of 50 to 500 nM and an inhibition at 1 µM of 30 to 70%.
For the molecule `Nc1nnc(-c2ccccc2O)cc1N1CCN(c2ccnc(C#CCNC(=O)c3cc4ncccn4n3)n2)CC(F)C1` (stereo not shown) [Compound P-44, N-(3-(4-(4-(3-amino-6-(2-hydroxyphenyl)pyridazin-4-yl)-6-fluoro-1,4-diazepan-1-yl)pyrimidin-2-yl)prop-2-yn-1-yl)pyrazolo[1,5-a]pyrimidine-2-carboxamide], in test [1], the DC50 was 500 to 5000 nM and the “SMARCA2 % Degradation @ 1 μM” value is reported as “++ (++=30-70%)”. In test [2], the DC50 fell in the range of 500 to 5000 nM and the inhibition at 1 µM was 30 to 70%.
Turning to `Nc1nnc(-c2ccccc2O)cc1N1CC2CN(c3ccnc(C#CCNC(=O)c4cc5ncccn5n4)n3)CC21` (stereo not shown) [Compound P-45, N-(3-(4-(6-(3-amino-6-(2-hydroxyphenyl)pyridazin-4-yl)-3,6-diazabicyclo[3.2.0]heptan-3-yl)pyrimidin-2-yl)prop-2-yn-1-yl)pyrazolo[1,5-a]pyrimidine-2-carboxamide], in test [1], the half-maximal degradation concentration (DC50) fell in the range of 500 to 5000 nM and the “SMARCA2 % Degradation @ 1 μM” value is given as “+ (+=<30%)”. Further, in test [2], the 50% degradation concentration (DC50) fell in the range of 500 to 5000 nM and the inhibition at 1 µM was < 30%.
Consider `CC1CCN(c2cc(-c3ccccc3O)nnc2N)CCN1c1ccnc(C#CCNC(=O)c2cc3ncccn3n2)n1` (stereo not shown) [Compound P-46, N-(3-(4-(4-(3-amino-6-(2-hydroxyphenyl)pyridazin-4-yl)-7-methyl-1,4-diazepan-1-yl)pyrimidin-2-yl)prop-2-yn-1-yl)pyrazolo[1,5-a]pyrimidine-2-carboxamide], for which, in test [1], the DC50 is 50 to 500 nM and the “SMARCA2 % Degradation @ 1 μM” value is given as “+++ (+++=>70%)”. In test [2], the half-maximal degradation concentration (DC50) fell in the range of 50 to 500 nM and the inhibition at 1 µM was > 70%.
As for `Nc1nnc(-c2ccccc2O)cc1N1CC[C@@H]2[C@H]1CN2c1ccnc(C#CCNC(=O)c2cc3ncccn3n2)n1` [Compound P-47, N-(3-(4-((1R,5R)-2-(3-amino-6-(2-hydroxyphenyl)pyridazin-4-yl)-2,6-diazabicyclo[3.2.0]heptan-6-yl)pyrimidin-2-yl)prop-2-yn-1-yl)pyrazolo[1,5-a]pyrimidine-2-carboxamide], in test [1], the DC50 lay within 500 to 5000 nM and the “SMARCA2 % Degradation @ 1 μM” value is “+ (+=<30%)”. In test [2], the DC50 lay within 500 to 5000 nM and the inhibition at 1 µM is < 30%.
With `C[C@H]1CN(c2ccnc(C#CCNC(=O)c3cc4ncccn4n3)n2)CCN1c1cc(-c2ccccc2O)nnc1N` [Compound P-48, (S)-N-(3-(4-(4-(3-amino-6-(2-hydroxyphenyl)pyridazin-4-yl)-3-methylpiperazin-1-yl)pyrimidin-2-yl)prop-2-yn-1-yl)pyrazolo[1,5-a]pyrimidine-2-carboxamide], in test [1], the DC50 is 50 to 500 nM and the “SMARCA2 % Degradation @ 1 μM” value is on record as “++ (++=30-70%)”. In addition, in test [2], the half-maximal degradation concentration (DC50) was 50 to 500 nM and the inhibition at 1 µM was 30 to 70%.
